# Source: patent US5326770A, “Monoamine oxidase-B (MAO-B) inhibitory 5-substituted 2,4-thiazolidinediones useful in treating memory disorders of mammals” (priority 1992, dated 1994)
# Legend:
# MAO-B = target: T1, MAO-B (Rattus norvegicus, UniProt P19643); assay: Monoamine oxidase-B (MAO-B) inhibition assay; assay type: biochemical; conditions: for IC50: Table II; for Ratio A/B: ratio of MAO-A IC50 to MAO-B IC50
# T1 construct: Both Forms of Monoamine Oxidase in the Rat Brain; from tissue
# T1 sequence (P19643 1-520): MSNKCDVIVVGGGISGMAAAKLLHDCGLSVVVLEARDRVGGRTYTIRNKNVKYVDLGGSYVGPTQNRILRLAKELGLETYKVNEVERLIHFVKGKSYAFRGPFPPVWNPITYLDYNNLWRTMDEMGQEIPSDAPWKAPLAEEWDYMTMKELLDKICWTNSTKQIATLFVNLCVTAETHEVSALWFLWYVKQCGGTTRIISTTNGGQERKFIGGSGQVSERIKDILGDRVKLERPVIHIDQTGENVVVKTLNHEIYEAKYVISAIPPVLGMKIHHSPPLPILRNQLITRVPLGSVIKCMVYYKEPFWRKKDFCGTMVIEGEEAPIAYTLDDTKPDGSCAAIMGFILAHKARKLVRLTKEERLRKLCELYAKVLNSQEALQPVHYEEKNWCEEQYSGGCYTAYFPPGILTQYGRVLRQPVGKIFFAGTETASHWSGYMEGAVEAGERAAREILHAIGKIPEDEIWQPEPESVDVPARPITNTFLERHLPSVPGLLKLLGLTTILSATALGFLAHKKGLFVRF
# MAO-A = target: T2, MAO-A (Rattus norvegicus, UniProt P21396); assay: Monoamine oxidase-A (MAO-A) inhibition assay; assay type: biochemical; conditions: Table II
# T2 construct: Both Forms of Monoamine Oxidase in the Rat Brain; from tissue
# T2 sequence (P21396 1-526): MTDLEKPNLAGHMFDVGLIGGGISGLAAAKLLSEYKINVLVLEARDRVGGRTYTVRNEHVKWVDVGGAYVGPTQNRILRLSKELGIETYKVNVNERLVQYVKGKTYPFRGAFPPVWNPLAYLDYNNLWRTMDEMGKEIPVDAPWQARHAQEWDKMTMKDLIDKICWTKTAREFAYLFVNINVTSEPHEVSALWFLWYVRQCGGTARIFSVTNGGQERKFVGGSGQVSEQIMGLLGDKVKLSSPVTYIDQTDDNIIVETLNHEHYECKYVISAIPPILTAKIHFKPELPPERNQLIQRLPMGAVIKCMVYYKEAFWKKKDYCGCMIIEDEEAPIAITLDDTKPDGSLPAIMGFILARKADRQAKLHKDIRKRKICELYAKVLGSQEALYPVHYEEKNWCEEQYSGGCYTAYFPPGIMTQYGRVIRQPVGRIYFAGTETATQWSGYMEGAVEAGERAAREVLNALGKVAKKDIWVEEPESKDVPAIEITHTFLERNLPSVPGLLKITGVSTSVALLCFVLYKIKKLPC
# AMPT test (ED50) = assay type: in vivo; conditions: Table II; method not described
Compound,IC50 (MAO-B),Ratio A/B (MAO-B),IC50 (MAO-A),ED50 (AMPT test (ED50))
N#CCCCCN1C(=O)SC(=Cc2cccc(OCc3ccccc3)c2)C1=O [Example 3],0.7 µM,> 1428,> 1000 µM,–
"O=C1NC(=O)C(=Cc2ccc(OCCc3ccccc3)cc2)S1 [Example 4, 5-[4-(2-Phenylethoxy)phenylmethylene]-2,4-thiazolidinedione]",0.1 µM,> 300,30 µM,–
"CCCCCCOc1ccc(CC2SC(=O)NC2=O)cc1 (stereo not shown) [Example 6, 5-[(4-Hexyloxyphenyl)methyl]-2,4-thiazolidinedione]",0.1 µM,100,10 µM,6.71 mg/kg
"O=C1NC(=O)C(Cc2ccc(OCC34CC5CC(CC(C5)C3)C4)cc2)S1 (stereo not shown) [Example 7, 5-[4-(3-Adamantylmethoxy)phenylmethyl]-2,4-thiazolidinedione]",0.1 µM,300,30 µM,–

# Second part, led by results:
IC50 (MAO-B),Ratio A/B (MAO-B),IC50 (MAO-A),Compound,ED50 (AMPT test (ED50))
100 µM,1,100 µM,"O=C1NC(=O)C(=Cc2cccc(OCc3ccccc3)c2)S1 [Example 1, 5-[3-(Phenylmethoxy)phenylmethyl-ene]-2,4-thiazolidinedione]",–
0.1 µM,> 50000,> 5000 µM,"N#CCCCN1C(=O)SC(=Cc2cccc(OCc3ccccc3)c2)C1=O [Example 2, 2,4-Dioxo-5-[3-(phenylmethoxy)-phenylmethylene]-4-thiazolidinebutanenitrile]",–
2 µM,15,30 µM,"N#CCN1C(=O)SC(=Cc2ccc(OCCc3ccccc3)cc2)C1=O [Example 5, 2,4-Dioxo-5-[4-(2-phenylethoxy)phenylmethylene]-3-thiazolidineacetonitrile]",–
30 µM,> 3,> 100 µM,"O=C1NC(=O)C(=Cc2ccc(OCc3cccc(Cl)c3)cc2)S1 [Example 8, 5-{4-[(3-Chlorophenyl)methoxy]phenylmethylene}-2,4-thiazolidinedione]",–
100 µM,< 1,30 µM,N#CCCCN1C(=O)SC(=Cc2ccc(OCc3cccc(Cl)c3)cc2)C1=O [Example 9],–
